Key:
Type in all cases: in vivo
[1] = test system: ANTAR=Anthemis arvensis (field chamomile); test: Postemergent herbicidal activity in the greenhouse; conditions: 21-28 DAAA
Experimental: (§1) Seeds of the desired test plant species were planted in Sun Gro MetroMix® 306 planting mixture, which typically has a pH of 6.0 to 6.8 and an organic matter content of about 30 percent, in plastic pots with a surface area of 103.2 square centimeters (cm^2). When required to ensure good germination and healthy plants, a fungicide treatment and/or other chemical or physical treatment was applied. The plants were grown for 7-36 days (d) in a greenhouse with an approximate 14 hour (h) photoperiod which was maintained at about 18° C. during the day and 17° C. during the night. Nutrients and water were added on a regular basis and supplemental lighting was provided with overhead metal halide 1000-Watt lamps as necessary. The plants were employed for testing when they reached the second or third true leaf stage.
(§2) An aliquot of formulated Compound 5 (100 grams acid equivalent per liter (g ae/L); emusifiable concentrate (EC)), Compound 6 (100 g ae/L; EC) or Compound 7 (100 g ae/L; EC) was placed in a 25 mL glass vial and diluted in a volume of 1.25% (volume per volume (v/v)) aqueous Actirob B esterified rapeseed oil to obtain a stock solution. The concentrated stock solutions were diluted with an aqueous mixture of 1.25% v/v of aqueous Actirob B esterified rapeseed oil to provide the appropriate application rates. Compound requirements are based upon a 12 mL application volume at a rate of 187 liters per hectare (L/ha). Formulated compounds were applied to the plant material with an overhead Mandel track sprayer equipped with 8002E nozzles calibrated to deliver 187 L/ha over an application area of 0.503 square meters (m^2) at a spray height of 18 inches ([…]) above average plant canopy. Control plants were sprayed in the same manner with the solvent blank.
(§3) The treated plants and control plants were placed in a greenhouse as described above and watered by subirrigation to prevent washoff of the test compounds. After 20-22 d, the condition of the test plants as compared with that of the control plants was determined visually and scored on a scale of 0 to 100 percent where 0 corresponds to no injury and 100 corresponds to complete kill. […]
(§4) The values reported are means.

[2] = test system: CHEAL=Chenopodium album L. (common lambsquarters); test: Postemergent herbicidal activity in the greenhouse; conditions: 21-28 DAAA
Experimental: as §1, §2, §3, §4

[3] = test system: CIRAR=Cirsium arvense (L.) Scop. (Canada thistle); test: Postemergent herbicidal activity in the greenhouse; conditions: 21-28 DAAA
Experimental: as §1, §2, §3, §4

[4] = test system: KCHSC=Kochia scoparia (L.) Schrad. (Kochia); test: Postemergent herbicidal activity in the greenhouse; conditions: 21-28 DAAA
Experimental: as §1, §2, §3, §4

[5] = test system: MATCH=Matricaria recutita L. (wild chamomile); test: Postemergent herbicidal activity in the greenhouse; conditions: 21-28 DAAA
Experimental: as §1, §2, §3, §4

[6] = test system: MATIN=Matricaria inodora (scentless mayweed); test: Postemergent herbicidal activity in the greenhouse; conditions: 21-28 DAAA
Experimental: as §1, §2, §3, §4

[7] = test system: PAPRH=Papaver rhoeas L. (common poppy); test: Postemergent herbicidal activity in the greenhouse; conditions: 21-28 DAAA
Experimental: as §1, §2, §3, §4

[8] = test system: POLCO=Polygonum convolvulus L. (wild buckwheat); test: Postemergent herbicidal activity in the greenhouse; conditions: 21-28 DAAA
Experimental: as §1, §2, §3, §4

[9] = test system: Res-PAPRH=Papaver rhoeas L. (common poppy) resistant to tribenuron and thifensulfuron (ALS) and 2,4-D; test: Postemergent herbicidal activity in the greenhouse; conditions: 21-28 DAAA
Experimental: as §1, §2, §3, §4

[10] = test system: SINAR=Sinapis arvensis L. (wild mustard); test: Postemergent herbicidal activity in the greenhouse; conditions: 21-28 DAAA
Experimental: as §1, §2, §3, §4

[11] = test system: VERSS=Veronica spp (speedwell); test: Postemergent herbicidal activity in the greenhouse; conditions: 21-28 DAAA
Experimental: as §1, §2, §3, §4

[12] = test system: FUMOF=Fumaria officinalis (common fumitory); test: Postemergence field trial, Banares, Spain
Experimental: (§5) Field trials were established in Spain (Banares and Granon) and Germany (Bielefeld) to evaluate the efficacy of Compound 5, Compound 6, and Compound 7. Trials were designed as randomized complete blocks with three to four replicates. Trials were established in winter wheat with natural weed population with plot sizes of 2-2.5 meters (m) by 6-8 m (width×length). The crops were grown using normal cultural practices for fertilization, seeding, and maintenance to ensure good growth of the crop. All herbicide treatments were applied post-emergence with applications made to the crops at the BBCH 21 to 23 growth stage. Herbicides were applied with backpack or bicycle sprayers using air as a propellant. The sprayers utilized flat fan air-induction spray nozzles calibrated to deliver a uniform spray pattern that provided thorough coverage of the foliage using a 200 L/ha spray volume. All treatments were applied with methylated seed oil (MSO) at 1.25% v/v. Phytotoxicity to the weeds was assessed visually at several intervals after application as percent overall control, compared to an untreated control plot. In general, three to four replicates were assessed for each treatment. All treatment results are an average of three or four replicates. Compound 5, Compound 6, and Compound 7 were applied as emulsifiable concentrate (EC) formulations at 100 g ae/L EC, respectively.

[13] = test system: PAPRH=Papaver rhoeas L. (common poppy); test: Postemergence field trial, Banares, Spain
Experimental: as §5

[14] = test system: VERHE=Veronica hederifolia (ivyleaved speedwell); test: Postemergence field trial, Banares, Spain
Experimental: as §5

[15] = test system: PAPRH=Papaver rhoeas L. (common poppy); test: Postemergence field trial, Granon, Spain (Table 7)
Experimental: as §5

[16] = test system: SINAR=Sinapis arvensis L. (wild mustard); test: Postemergence field trial, Granon, Spain (Table 7)
Experimental: as §5

[17] = test system: CENCY=Centaurea cyanus (cornflower); test: Postemergence field trial, Bielefed, Germany
Experimental: as §5

[18] = test system: PAPRH=Papaver rhoeas L. (common poppy); test: Postemergence field trial, Bielefed, Germany
Experimental: as §5

`C#CCOC(=O)c1nc(-c2ccc3cc[nH]c3c2F)c(F)c(N)c1Cl` [Compound 5, prop-2-yn-1-yl 4-amino-3-chloro-5-fluoro-6-(7-fluoro-1H-indol-6-yl)picolinate] was tested, and the “Percent (%) Visual Control ANTAR” value ([1]; 10 g ae/ha) was 100%, the “Percent (%) Visual Control ANTAR” value ([1]; 20 g ae/ha) was 83.3% and the “Percent (%) Visual Control CHEAL” value ([2]; 10 g ae/ha) was 97.5%. For the same compound, the “Percent (%) Visual Control CHEAL” value ([2]; 20 g ae/ha) was 100%, the “Percent (%) Visual Control CIRAR” value ([3]; 10 g ae/ha) was 56.7% and the “Percent (%) Visual Control CIRAR” value ([3]; 20 g ae/ha) was 58.3%. For the same compound, the “Percent (%) Visual Control KCHSC” value ([4]; 10 g ae/ha) was 76.7%, the “Percent (%) Visual Control KCHSC” value ([4]; 20 g ae/ha) was 82.7% and the “Percent (%) Visual Control MATCH” value ([5]; 10 g ae/ha) was 54.2%. For the same compound, the “Percent (%) Visual Control MATCH” value ([5]; 20 g ae/ha) was 68.9%, the “Percent (%) Visual Control MATIN” value ([6]; 10 g ae/ha) was 100% and the “Percent (%) Visual Control MATIN” value ([6]; 20 g ae/ha) was 100%. The “Percent (%) Visual Control PAPRH” value ([7]; 10 g ae/ha) was 95%, the “Percent (%) Visual Control PAPRH” value ([7]; 20 g ae/ha) was 100% and the “Percent (%) Visual Control POLCO” value ([8]; 10 g ae/ha) was 100%. For the same compound, the “Percent (%) Visual Control POLCO” value ([8]; 20 g ae/ha) was 100%, the “Percent (%) Visual Control Res-PAPRH” value ([9]; 10 g ae/ha) was 87.5% and the “Percent (%) Visual Control Res-PAPRH” value ([9]; 20 g ae/ha) was 100%. For the same compound, the “Percent (%) Visual Control SINAR” value ([10]; 10 g ae/ha) was 89%, the “Percent (%) Visual Control SINAR” value ([10]; 20 g ae/ha) was 96.7% and the “Percent (%) Visual Control VERSS” value ([11]; 10 g ae/ha) was 77.5%. The “Percent (%) Visual Control VERSS” value ([11]; 20 g ae/ha) was 80.8%, the “Percent (%) Visual Control FUMOF 83DAAA” value ([12]; 5 g ae/ha) was 41.7% and the “Percent (%) Visual Control FUMOF 83DAAA” value ([12]; 10 g ae/ha) was 65%. For the same compound, the “Percent (%) Visual Control FUMOF 83DAAA” value ([12]; 20 g ae/ha) was 93.3%, the “Percent (%) Visual Control PAPRH 66DAAA” value ([13]; 5 g ae/ha) was 57.7% and the “Percent (%) Visual Control PAPRH 66DAAA” value ([13]; 10 g ae/ha) was 70%. The “Percent (%) Visual Control PAPRH 66DAAA” value ([13]; 20 g ae/ha) was 90%, the “Percent (%) Visual Control VERHE 66DAAA” value ([14]; 5 g ae/ha) was 60% and the “Percent (%) Visual Control VERHE 66DAAA” value ([14]; 10 g ae/ha) was 77.7%. The “Percent (%) Visual Control VERHE 66DAAA” value ([14]; 20 g ae/ha) was 91%, the “Percent (%) Visual Control PAPRH 68DAAA” value ([15]; 5 g ae/ha) was 58.3% and the “Percent (%) Visual Control PAPRH 68DAAA” value ([15]; 10 g ae/ha) was 72.7%. The “Percent (%) Visual Control PAPRH 68DAAA” value ([15]; 20 g ae/ha) was 79.3%, the “Percent (%) Visual Control SINAR 48DAAA” value ([16]; 5 g ae/ha) was 85% and the “Percent (%) Visual Control SINAR 48DAAA” value ([16]; 10 g ae/ha) was 94.8%. The “Percent (%) Visual Control SINAR 48DAAA” value ([16]; 20 g ae/ha) was 95%, the “Percent (%) Visual Control CENCY 85DAAA” value ([17]; 5 g ae/ha) was 65% and the “Percent (%) Visual Control CENCY 85DAAA” value ([17]; 10 g ae/ha) was 87.5%. The “Percent (%) Visual Control CENCY 85DAAA” value ([17]; 20 g ae/ha) was 95%, the “Percent (%) Visual Control PAPRH 85DAAA” value ([18]; 5 g ae/ha) was 92.5% and the “Percent (%) Visual Control PAPRH 85DAAA” value ([18]; 10 g ae/ha) was 97.3%. The “Percent (%) Visual Control PAPRH 85DAAA” value ([18]; 20 g ae/ha) was 98.8%.

Source: patent publication US11363816B2, “4-amino-6-(heterocyclic)picolinates and 6-amino-2-(heterocyclic)pyramidine-4-carboxylates and their use as herbicides” (Dow AgroSciences LLC, priority 2017, dated 2022)
